Assay results: patent US20240051952A1, “HMOX1 INDUCERS” (Mitobridge Inc., priority 2019, published 2024)

Tested on: Human Heme Oxygenase-1 (HMOX-1)
Assay: ELISA assay to measure human heme oxygenase-1 (HMOX-1) in HepG2 lysate
Type: cell-based
Settings: fold change of human HMOX1 protein levels relative to DMSO control, HepG2
How it was run: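 HepG2 cells lysed in PBS/0.5% Triton X-100/1 mM EDTA with protease inhibitors; lysate diluted 1:20. Sandwich ELISA: anti-HO-1 capture (8 μg/ml), biotinylated detection antibody (200 ng/ml), streptavidin-HRP, chemiluminescent read. Quantified against 12-point HO-1 standard curve from 20 ng/ml; incubations at 20 °C.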

Row | Compound | Maximum Fold induction
1 | Cn1c(Nc2nc3ccc(F)cc3o2)nc2cc(C(=O)O)ccc21 [Example 68, 2-((6-fluorobenzo[d]oxazol-2-yl)amino)-1-methyl-1H-benzo[d]imidazole-5-carboxylic acid] | 16-21
2 | Cn1c(Nc2nc3ccccc3o2)nc2cc(C(O)C(F)(F)F)ccc21 (centres unmarked) [Example 142, 1-(2-(benzo[d]oxazol-2-ylamino)-1-methyl-1H-benzo[d]imidazol-5-yl)-2,2,2-trifluoroethan-1-ol] | 27
3 | COCCONC(=O)c1ccc2c(c1)nc(Nc1nc3ccc(C(F)(F)F)cc3o1)n2C [Example 124, N-(2-methoxyethoxy)-1-methyl-2-((6-(trifluoromethyl)benzo[d]oxazol-2-yl)amino)-1H-benzo[d]imidazole-5-carboxamide] | 31-52
4 | COCCNC(=O)c1ccc2c(c1)nc(Nc1nc3ccc(OC(F)(F)F)cc3o1)n2CCS(C)(=O)=O [Example 90, N-(2-methoxyethyl)-1-(2-(methylsulfonyl)ethyl)-2-((6-(trifluoromethoxy)benzo[d]oxazol-2-yl)amino)-1H-benzo[d]imidazole-5-carboxamide] | 22
5 | COCCNC(=O)c1ccc2c(c1)nc(Nc1nc3ccc(OC(F)(F)F)cc3o1)n2C [Example 45, N-(2-methoxyethyl)-1-methyl-2-((6-(trifluoromethoxy)benzo[d]oxazol-2-yl)amino)-1H-benzo[d]imidazole-5-carboxamide] | 10-28
6 | COCCNC(=O)c1ccc2c(c1)nc(Nc1nc3cc(Cl)ccc3[nH]1)n2C [Example 83, 2-((5-chloro-1H-benzo[d]imidazol-2-yl)amino)-N-(2-methoxyethyl)-1-methyl-1H-benzo[d]imidazole-5-carboxamide] | 16-21
7 | COCCNC(=O)c1ccc2c(c1)nc(Nc1nc3ccc(OC(F)(F)F)cc3o1)n2CCOC [Example 78, N,1-bis(2-methoxyethyl)-2-((6-(trifluoromethoxy)benzo[d]oxazol-2-yl)amino)-1H-benzo[d]imidazole-5-carboxamide] | 21-23
8 | Cn1c(Nc2nc3ccc(OC(F)(F)F)cc3o2)nc2cc(C(=O)Nc3cn[nH]c3)ccc21 [Example 46, 1-methyl-N-(1H-pyrazol-4-yl)-2-((6-(trifluoromethoxy)benzo[d]oxazol-2-yl)amino)-1H-benzo[d]imidazole-5-carboxamide] | 14-20
9 | COCCNC(=O)c1ccc2c(c1)nc(Nc1nc3ccc(OCC(F)(F)F)cc3o1)n2C [Example 99, N-(2-methoxyethyl)-1-methyl-2-((6-(2,2,2-trifluoroethoxy)benzo[d]oxazol-2-yl)amino)-1H-benzo[d]imidazole-5-carboxamide] | 25-31
10 | Cn1c(Nc2nc3ccccc3o2)nc2cc(C(=O)NCCN3CCCC3)ccc21 [Example 28, 2-(benzo[d]oxazol-2-ylamino)-1-methyl-N-(2-(pyrrolidin-1-yl)ethyl)-1H-benzo[d]imidazole-5-carboxamide] | 41
11 | COCCNC(=O)c1ccc2c(c1)nc(Nc1nc3c(s1)CCCC3)n2C [Example 5, N-(2-methoxyethyl)-1-methyl-2-((4,5,6,7-tetrahydrobenzo[d]thiazol-2-yl)amino)-1H-benzo[d]imidazole-5-carboxamide] | 7-12
12 | Cn1c(Nc2nc3ccc(Cl)cc3o2)nc2cc(C(=O)O)ccc21 [Example 96, 2-((6-chlorobenzo[d]oxazol-2-yl)amino)-1-methyl-1H-benzo[d]imidazole-5-carboxylic acid] | 39-56
13 | COCCNC(=O)c1ccc2c(c1)nc(Nc1nc3ccc(OC(F)(F)F)cc3o1)n2CC1(O)COC1 [Example 94, 1-((3-hydroxyoxetan-3-yl)methyl)-N-(2-methoxyethyl)-2-((6-(trifluoromethoxy)benzo[d]oxazol-2-yl)amino)-1H-benzo[d]imidazole-5-carboxamide] | 28
14 | Cn1c(Nc2nc3ccc(C(F)(F)F)nc3o2)nc2cc(C(=O)NCCO)ccc21 [Example 113, N-(2-hydroxyethyl)-1-methyl-2-((5-(trifluoromethyl)oxazolo[5,4-b]pyridin-2-yl)amino)-1H-benzo[d]imidazole-5-carboxamide] | 20
15 | Cn1c(Nc2nc3cc(F)c(C(F)(F)F)cc3o2)nc2cc(C(=O)NOCCO)ccc21 [Example 130, 2-((5-fluoro-6-(trifluoromethyl)benzo[d]oxazol-2-yl)amino)-N-(2-hydroxyethoxy)-1-methyl-1H-benzo[d]imidazole-5-carboxamide] | 42
16 | COCCNC(=O)c1ccc2c(c1)nc(Nc1nc3ccc(OC(F)(F)F)cc3s1)n2C1CCN(C)C1 (centres unmarked) [Example 4e, N-(2-methoxyethyl)-1-(1-methylpyrrolidin-3-yl)-2-((6-(trifluoromethoxy)benzo[d]thiazol-2-yl)amino)-1H-benzo[d]imidazole-5-carboxamide] | 19
17 | COCCNC(=O)c1ccc2c(c1)nc(Nc1nc3cc(F)ccc3o1)n2C [Example 67, 2-((5-fluorobenzo[d]oxazol-2-yl)amino)-N-(2-methoxyethyl)-1-methyl-1H-benzo[d]imidazole-5-carboxamide] | 18-56
18 | Cn1c(Nc2nc3ccc(OC(F)(F)F)cc3o2)nc2cc(C(=O)O)c(F)cc21 [Example 70, 6-fluoro-1-methyl-2-((6-(trifluoromethoxy)benzo[d]oxazol-2-yl)amino)-1H-benzo[d]imidazole-5-carboxylic acid] | 8-11
19 | Cn1c(Nc2nc3cc(C(=O)O)ccc3n2C)nc2cc(OC(F)(F)F)ccc21 [Example 15, 1-methyl-2-((1-methyl-5-(trifluoromethoxy)-1H-benzo[d]imidazol-2-yl)amino)-1H-benzo[d]imidazole-5-carboxylic acid] | 11-13
20 | COCCNC(=O)c1ccc2c(c1)nc(Nc1nc3ccc(OC(F)F)cc3o1)n2C [Example 63, 2-((6-(difluoromethoxy)benzo[d]oxazol-2-yl)amino)-N-(2-methoxyethyl)-1-methyl-1H-benzo[d]imidazole-5-carboxamide] | 11-15
21 | CN(C)CCn1c(Nc2nc3ccc(OC(F)(F)F)cc3o2)nc2cc(C(=O)O)ccc21 [Example 74, 1-(2-(dimethylamino)ethyl)-2-((6-(trifluoromethoxy)benzo[d]oxazol-2-yl)amino)-1H-benzo[d]imidazole-5-carboxylic acid] | 17-28
22 | Cn1c(Nc2nc3ccc(C(F)(F)F)cc3o2)nc2cc(C(=O)O)ccc21 [Example 31, 1-methyl-2-((6-(trifluoromethyl)benzo[d]oxazol-2-yl)amino)-1H-benzo[d]imidazole-5-carboxylic acid] | 25-29
23 | Cn1c(Nc2nc3cc(F)ccc3o2)nc2cc(C(=O)O)ccc21 [Example 66, 2-((5-fluorobenzo[d]oxazol-2-yl)amino)-1-methyl-1H-benzo[d]imidazole-5-carboxylic acid] | 19-22
24 | CS(=O)(=O)CCn1c(Nc2nc3ccc(OC(F)(F)F)cc3o2)nc2cc(C(=O)O)ccc21 [Example 89, 1-(2-(methylsulfonyl)ethyl)-2-((6-(trifluoromethoxy)benzo[d]oxazol-2-yl)amino)-1H-benzo[d]imidazole-5-carboxylic acid] | 10
25 | Cn1c(Nc2nc3ccc(OC(F)F)cc3o2)nc2cc(C(=O)O)ccc21 [Example 62, 2-((6-(difluoromethoxy)benzo[d]oxazol-2-yl)amino)-1-methyl-1H-benzo[d]imidazole-5-carboxylic acid] | 15-24
26 | COCCNC(=O)c1ccc2c(c1)nc(Nc1nc3ccc(C4CC4)cc3o1)n2C [Example 116, 2-((6-cyclopropylbenzo[d]oxazol-2-yl)amino)-N-(2-methoxyethyl)-1-methyl-1H-benzo[d]imidazole-5-carboxamide] | 32-38
27 | Cn1c(Nc2nc3ccc(C(F)(F)F)cc3o2)nc2cc(C(=O)NOCCO)ccc21 [Example 125, N-(2-hydroxyethoxy)-1-methyl-2-((6-(trifluoromethyl)benzo[d]oxazol-2-yl)amino)-1H-benzo[d]imidazole-5-carboxamide] | 32-59
28 | Cn1c(Nc2nc3ccc(N4CCCC4)cc3o2)nc2cc(C(=O)NCCOCCO)ccc21 [Example 137, N-(2-(2-hydroxyethoxy)ethyl)-1-methyl-2-((6-(pyrrolidin-1-yl)benzo[d]oxazol-2-yl)amino)-1H-benzo[d]imidazole-5-carboxamide] | 24-70
29 | COCCONC(=O)c1ccc2c(c1)nc(Nc1nc3ccc(C(C)=O)cc3o1)n2C [Example 132, 2-((6-acetylbenzo[d]oxazol-2-yl)amino)-N-(2-methoxyethoxy)-1-methyl-1H-benzo[d]imidazole-5-carboxamide] | 39
30 | CN1CC(c2ccc3nc(Nc4nc5cc(C(=O)NCCOCCO)ccc5n4C)oc3c2)OC1=O (centres unmarked) [Example 135, N-(2-(2-hydroxyethoxy)ethyl)-1-methyl-2-((6-(3-methyl-2-oxooxazolidin-5-yl)benzo[d]oxazol-2-yl)amino)-1H-benzo[d]imidazole-5-carboxamide] | 1

Same assay, conditions: human HMOX1 protein in HepG2 lysate, ELISA; * = average of 2 or more EC50 determinations; NA = Not Active

Row | Compound | EC50 [nM]
31 | CCn1c(Nc2nc3ccc(OC(F)(F)F)cc3o2)nc2cc(C(=O)NCCOC)ccc21 [Example 85, 1-ethyl-N-(2-methoxyethyl)-2-((6-(trifluoromethoxy)benzo[d]oxazol-2-yl)amino)-1H-benzo[d]imidazole-5-carboxamide] | 1300
32 | COCCNC(=O)c1ccc2c(c1)nc(Nc1nc3c(s1)CCCC3)n2C [Example 5, N-(2-methoxyethyl)-1-methyl-2-((4,5,6,7-tetrahydrobenzo[d]thiazol-2-yl)amino)-1H-benzo[d]imidazole-5-carboxamide] | 1300
